± gives the expanded uncertainty stated by the source.
Legend:
[1] = Molar enthalpy of transition or fusion; conditions: Adiabatic calorimetry

Molar enthalpy of transition or fusion ([1]; Crystal 1): 5.16 ± 0.0574 kcal/mol | Molar enthalpy of transition or fusion ([1]; Crystal 2): 0.0464 ± 0.0478 kcal/mol | Molar enthalpy of transition or fusion ([1]; Metastable crystal): 4.76 ± 0.0621 kcal/mol | Triple point temperature (Crystal 1, Adiabatic calorimetry): 343.8 ± 0.67 K | Triple point temperature (Crystal 2, Adiabatic calorimetry): 152 ± 1 K | Triple point temperature (Metastable crystal): 342.48 ± 0.2 K
SMILES: CCCCn1cc[n+](C)c1.Cc1ccc(S(=O)(=O)[O-])cc1 [1-butyl-3-methylimidazolium tosylate]

— the NIST ThermoML archive (doi:10.1021/je700152c)
